Consider seven compounds from patent US20230278995A1, “1,3,4-OXADIAZOLE DERIVATIVE COMPOUNDS AS HISTONE DEACETYLASE 6 INHIBITOR, AND THE PHARMACEUTICAL COMPOSITION COMPRISING THE SAME” (CHONG KUN DANG PHARMACEUTICAL CORP., priority 2020, published 2023).

A value given as a limit tells only on which side of the number the result lay.

Experiment [1] concerns the target T1, human recombinant HDAC1 (Homo sapiens, UniProt Q13547).
T1 construct: purchased Enzo Life Sciences, Inc. BML-SE456
In words: HDAC enzyme activity inhibition assay (HDAC Fluorimetric Drug Discovery Kit), HDAC1. The format is biochemical. To be noted: human recombinant HDAC1, Fluor de Lys-SIRT1 substrate, 30° C. 60 minutes. In outline: (§1)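 The preceding reaction ran 60 min at 30 °C with 0.3 μg recombinant human enzyme, HDAC1 or HDAC6 under an identical protocol, and 10 μM Fluor de Lys-SIRT1 substrate, across 5-fold diluted compound.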

The target in experiment [2] is T2, human recombinant HDAC6 (Homo sapiens, UniProt Q9UBN7).
T2 construct: purchased Calbiochem Inc. 382180
T2 sequence (Q9UBN7 1-1215): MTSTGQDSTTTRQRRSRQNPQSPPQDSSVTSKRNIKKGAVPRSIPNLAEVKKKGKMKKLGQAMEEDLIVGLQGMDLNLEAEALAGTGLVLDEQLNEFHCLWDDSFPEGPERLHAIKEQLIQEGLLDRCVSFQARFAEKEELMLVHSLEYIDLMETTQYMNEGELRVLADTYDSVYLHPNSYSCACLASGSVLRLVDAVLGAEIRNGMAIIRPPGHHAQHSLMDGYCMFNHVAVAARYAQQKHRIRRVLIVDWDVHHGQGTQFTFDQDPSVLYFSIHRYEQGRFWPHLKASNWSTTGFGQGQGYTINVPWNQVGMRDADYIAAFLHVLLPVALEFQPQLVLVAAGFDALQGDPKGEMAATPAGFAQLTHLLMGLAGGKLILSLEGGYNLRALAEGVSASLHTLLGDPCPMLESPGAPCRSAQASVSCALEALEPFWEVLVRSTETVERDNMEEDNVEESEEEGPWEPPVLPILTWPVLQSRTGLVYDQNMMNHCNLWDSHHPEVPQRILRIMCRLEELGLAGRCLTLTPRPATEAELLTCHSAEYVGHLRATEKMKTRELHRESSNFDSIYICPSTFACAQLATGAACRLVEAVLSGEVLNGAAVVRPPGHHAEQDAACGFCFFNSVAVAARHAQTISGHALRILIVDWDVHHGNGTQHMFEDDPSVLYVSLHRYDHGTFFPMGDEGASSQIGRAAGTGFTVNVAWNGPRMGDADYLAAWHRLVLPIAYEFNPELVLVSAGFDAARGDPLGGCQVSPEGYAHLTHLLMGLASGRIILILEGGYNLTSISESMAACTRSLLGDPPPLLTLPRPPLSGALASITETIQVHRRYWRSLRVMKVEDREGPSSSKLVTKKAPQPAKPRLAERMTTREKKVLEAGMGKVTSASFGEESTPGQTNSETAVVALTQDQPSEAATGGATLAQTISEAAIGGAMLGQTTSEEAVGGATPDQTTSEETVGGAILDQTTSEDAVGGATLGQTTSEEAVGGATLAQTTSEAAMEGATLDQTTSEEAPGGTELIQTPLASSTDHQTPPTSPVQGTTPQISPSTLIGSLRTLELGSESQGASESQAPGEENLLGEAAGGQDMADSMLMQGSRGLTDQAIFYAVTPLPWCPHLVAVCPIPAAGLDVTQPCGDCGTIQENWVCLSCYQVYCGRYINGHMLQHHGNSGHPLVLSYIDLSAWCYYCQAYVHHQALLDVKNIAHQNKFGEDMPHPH
Nature of the experiment: HDAC enzyme activity inhibition assay (HDAC Fluorimetric Drug Discovery Kit), HDAC6. To be noted: for HDAC6 selectivity (fold): HDAC1 vs HDAC6; for IC50: human recombinant HDAC6, same protocol as HDAC1. Format: biochemical. The procedure, abridged:
as §1

What is called IC50 is the concentration at which inhibition is half-maximal.

T1 sequence (Q13547 whole entry): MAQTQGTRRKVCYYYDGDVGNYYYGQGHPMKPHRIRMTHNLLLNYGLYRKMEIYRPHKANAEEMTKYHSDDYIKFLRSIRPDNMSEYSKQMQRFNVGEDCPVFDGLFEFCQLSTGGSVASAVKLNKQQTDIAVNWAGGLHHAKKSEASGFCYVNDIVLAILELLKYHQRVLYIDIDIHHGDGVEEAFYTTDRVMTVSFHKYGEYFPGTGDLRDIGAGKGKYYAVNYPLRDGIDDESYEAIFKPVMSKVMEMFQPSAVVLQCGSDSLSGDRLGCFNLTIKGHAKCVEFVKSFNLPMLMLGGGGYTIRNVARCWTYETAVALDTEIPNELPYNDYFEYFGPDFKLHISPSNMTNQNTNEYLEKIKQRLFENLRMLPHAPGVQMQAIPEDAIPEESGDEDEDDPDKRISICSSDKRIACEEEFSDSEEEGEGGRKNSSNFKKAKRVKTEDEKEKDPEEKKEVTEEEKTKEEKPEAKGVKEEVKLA

On to `CC(=O)N1CCC(F)(C(=O)N(Cc2ccc(-c3nnc(C(F)F)o3)cc2F)c2ccccc2)CC1` [Compound 3438, 1-acetyl-N-(4-(5-(difluoromethyl)-1,3,4-oxadiazol-2-yl)-2-fluorobenzyl)-4-fluoro-N-phenylpiperidine-4-carboxamide], for which the IC50 in experiment [1] was greater than 50000 nM. Also, in experiment [2], the “HDAC6 selectivity (fold)” value came to 302 fold and the IC50 was 166 nM.
The corresponding values for `CCC(=O)N1CCC(F)(C(=O)N(Cc2ccc(-c3nnc(C(F)F)o3)cc2F)c2ccccc2)CC1` [Compound 3439, N-(4-(5-(difluoromethyl)-1,3,4-oxadiazol-2-yl)-2-fluorobenzyl)-4-fluoro-N-phenyl-1-propionylpiperidine-4-carboxamide] are greater than 50000 nM, 238 fold and 210 nM.
The corresponding values for `CC(C)C(=O)N1CCC(F)(C(=O)N(Cc2ccc(-c3nnc(C(F)F)o3)cc2F)c2ccccc2)CC1` [Compound 3440, N-(4-(5-(difluoromethyl)-1,3,4-oxadiazol-2-yl)-2-fluorobenzyl)-4-fluoro-1-isobutyryl N-phenylpiperidine-4-carboxamide] are greater than 50000 nM, 178 fold and 280 nM.
For the compound `CS(=O)(=O)N1CCC(F)(C(=O)N(Cc2ccc(-c3nnc(C(F)F)o3)cc2F)c2ccccc2)CC1` [Compound 3442, N-(4-(5-(difluoromethyl)-1,3,4-oxadiazol-2-yl)-2-fluorobenzyl)-4-fluoro-1-(methylsulfonyl)-N-phenylpiperidine-4-carboxamide], the IC50 in experiment [1] was greater than 50000 nM; in experiment [2], 324 nM. Further, the “HDAC6 selectivity (fold)” value in experiment [2] came to 154 fold.
With `CCN1CCC(F)(C(=O)N(Cc2ccc(-c3nnc(C(F)F)o3)cn2)c2cccc(F)c2)CC1` [Compound 3443, N-((5-(5-(difluoromethyl)-1,3,4-oxadiazol-2-yl)pyridin-2-yl)methyl)-1-ethyl-4-fluoro N-(3-fluorophenyl)piperidine-4-carboxamide], the IC50 in experiment [1] is greater than 50000 nM. In addition, in experiment [2], the “HDAC6 selectivity (fold)” value was 967 fold and the IC50 turned out to be 51.7 nM.
Take `CC(C)(C)OC(=O)N1CC(F)(C(=O)N(Cc2ccc(-c3nnc(C(F)(F)F)o3)cn2)c2cccc(F)c2)C1` [Compound 6890, tert-butyl 3-fluoro-3-((3-fluorophenyl)((5-(5-(trifluoromethyl)-1,3,4-oxadiazol-2-yl)pyridin-2-yl)methyl)carbamoyl)azetidine-1-carboxylate]: the IC50 was greater than 50000 nM in experiment [1] and 877 nM in experiment [2]. For the same compound, the “HDAC6 selectivity (fold)” value in experiment [2] was 57 fold.
The corresponding values for `CN1CC(F)(C(=O)N(Cc2ccc(-c3nnc(C(F)(F)F)o3)cn2)c2cccc(F)c2)C1` [Compound 6891, 3-fluoro-N-(3-fluorophenyl)-1-methyl-N-((5-(5-(trifluoromethyl)-1,3,4-oxadiazol-2-yl)pyridin-2-yl)methyl)azetidine-3-carboxamide] are greater than 50000 nM, 254 nM and 196 fold.
